Patent publication US5091169A, “Dipyridoxyl phosphate NMRI contrast agent compositions” (priority 1989, dated 1992)
Read-outs that look alike come from different tables or passages of the source.

Legend:
[1] = 10 MHz, 37° C
Method: The relations of protons present in water and plasma exposed to the chelate product of Example 7 was tested by NMR for relaxities, in msec, at 10 MHz, 37° C.

selected body organs = conditions: for T1, Bile / T1, Heart / T1, Liver / T1, Renal cortex / T1, Renal medulla: 0.01 mmol/kg i.v., 10 MHz
Method: Each of seven rabbits was injected intravenously with 0.01 mmol/kg of the solution obtained in Example 7. The rabbits were sacrificed at 0.25, 0.50, 1.0, 2.0, 4, 6 and 24 hours post-injection, and the proton relation values of selected body organs were measured with NMR, in vitro, at 10 MHz.

[2] = Source text: The compound DPDP was studied potentiometrically from pH 11.2 to 2.0. Data sets were collected on a custom-built automatic potentiometric titration apparatus composed of a METROHM 655 DOSIMAT automatic buret, a FISHER ACCUMET pH meter with a CORNING calomel combination electrode, a custom-blown water jacketed titration cell, a BRINKMAN LAUDA K-2/R constant temperature bath and a COMMODORE 64 computer. The BASIC computer program TITRATOR (Harris, W. et al, J.Am.Chem.Soc. 101:6534 (1979)) runs the apparatus. Data analysis was performed on an IBM-AT computer using the least squares program, BETA (Harris, W. et al, supra), and the data analysis program, HANDNBAR (Harris, W. et al, supra). The titrants were standardized by phenophthalein titration as follows: KOH was calibrated against potassium hydrogen phthalate (a primary standard), and HCl solutions were calibrated against the KOH standard. The Mn(II)Cl2 solution was standardized with an EDTA titration using Erichrome Black T as the indicator. All solutions were made from distilled, deionized water that was further purified on a MILLI-Q cartridge system, degassed, and then kept under an atmosphere of argon which had been scrubbed for CO2 and O2. Additions of EDTA and Mn(II) solutions were performed using calibrated GILMOT pipets. The electrode was calibrated in concentration units with degassed solutions of p[H+]=2.291 and 1.078 at 0.1 M ionic strength.
The metal complex titration was performed by adding 152.2 mg (0.2383 mmoles) to 74.6 ml of a high pH aqueous solution. 2.07 ml of a 0.1152 M Mn(II) solution (0.2386 mmoles) were added. The complex was then titrated to low pH with 1.002 N HCl.

## Cc1ncc(COP(=O)(O)O)c(CN(CCN(CC(=O)[O-])Cc2c(COP(=O)(O)O)cnc(C)c2O)CC(=O)[O-])c1O.[Mn+2] [Mn(DPDP), manganese chelate complex of N,N'-bis-(pyridoxal-5-phosphate)ethylenediamine-N,N'-diacetic acid]
[1]; 0.000039 Molar
  T1 (Plasma): 1103 ms
[1]; 0.000078 Molar
  T1 (Plasma): 995 ms
[1]; 0.000156 Molar
  T1 (Plasma): 856 ms
  T1 (Water): 1470 ms
[1]; 0.000312 Molar
  T1 (Plasma): 624 ms
  T1 (Water): 1083 ms
[1]; 0.000625 Molar
  T1 (Plasma): 398 ms
  T1 (Water): 639 ms
[1]; 0.00125 Molar
  T1 (Plasma): 240 ms
  T1 (Water): 332 ms
[1]; 0.0025 Molar
  T1 (Plasma): 139 ms
  T1 (Water): 175 ms
  T2 (Plasma): 124 ms
[1]; 0.005 Molar
  T1 (Plasma): 74 ms
  T1 (Water): 100 ms
  T2 (Plasma): 68 ms
  T2 (Water): 86 ms
[1]; 0.010 Molar
  T1 (Plasma): 40 ms
  T1 (Water): 43 ms
  T2 (Plasma): 34 ms
  T2 (Water): 41 ms
Selected body organs; 0.25 hr
  T1, Bile: 160 ms
  T1, Heart: 231 ms
  T1, Liver: 68 ms
  T1, Renal cortex: 202 ms
  T1, Renal medulla: 192 ms
Selected body organs; 0.50 hr
  T1, Bile: 46 ms
  T1, Heart: 352 ms
  T1, Liver: 76 ms
  T1, Renal cortex: 191 ms
  T1, Renal medulla: 231 ms
Selected body organs; 1.0 hr
  T1, Bile: 25 ms
  T1, Heart: 381 ms
  T1, Liver: 48 ms
  T1, Renal cortex: 229 ms
  T1, Renal medulla: 236 ms
Selected body organs; 2 hr
  T1, Bile: 21 ms
  T1, Heart: 507 ms
  T1, Liver: 48 ms
  T1, Renal cortex: 192 ms
  T1, Renal medulla: 310 ms
Selected body organs; 4 hr
  T1, Bile: < 1 ms
  T1, Heart: 522 ms
  T1, Liver: 145 ms
  T1, Renal cortex: 210 ms
  T1, Renal medulla: 340 ms
Selected body organs; 6 hr
  T1, Bile: 14 ms
  T1, Heart: 663 ms
  T1, Liver: 209 ms
  T1, Renal cortex: 239 ms
  T1, Renal medulla: 375 ms
Selected body organs; 24 hr
  T1, Bile: 107 ms
  T1, Heart: 660 ms
  T1, Liver: 315 ms
  T1, Renal cortex: 328 ms
  T1, Renal medulla: 563 ms
Selected body organs; liver, renal cortex, renal medulla and heart
  uptake and clearance: rapid uptake and clearance of Mn(DPDP) in the liver, renal cortex, renal medulla and heart
Selected body organs; post-injection, i.v.
  clearance time through renal and hepatobiliary systems: 6 to 8 h
[2]; Mn(II) chelate, titrated from pH 11.1 to 2.0
  log Kf (formation constant): 14.8
[2]; physiological pH
  binding of Mn(II) ion: quantitatively bound to the chelating agent
[2]; titration data
  pH below which chelate begins to demetallate: below 4.5
blood-brain barrier; defect in blood-brain barrier
  collection in extravascular space: large amounts of the complex of Mn(DPDP) collect in the extravascular space
blood-brain barrier; not observable without Mn(DPDP) as contrast agent
  observation of blood-brain barrier defects by NMRI: such defects were observed by NMRI tomography
